# Measured values from patent US20240138411A1, “METHOD OF […] OF SUGARCANE” (CORTEVA AGRISCIENCE LLC, priority 2021, published 2024).
# “Also recorded” adds a separate entry of the source.
# System: sugarcane
# Test: Sugarcane flowering inhibition field trials, floral induction rated on UFSCar scale
# Assay type: in vivo
# Procedure: In order to explore the activity of florpyrauxifen as flowering inhibitor in sugarcane, field studies were carried out. Florpyrauxifen-benzyl was tested at rates from 2 to 20 grams active ingredient per hectare (g ai/ha) and compared to Ethrel® 720 (Bayer), the standard treatment. The flowering inhibition effect was assessed by checking the floral induction in sugarcane through the percentage scale recommended by UFSCar (Federal University of Sao Carlos, Sao Paulo, Brazil).
# Four trials were carried out in sugarcane where florpyrauxifen-benzyl (Rinskor®), applied at a rate of 2 to 20 g ai/ha, was compared to ethephon (Ethrel® 720) applied at a rate of 475 g ai/ha. Control plots of untreated sugarcane were also evaluated. Rinskor® and Ethrel® 720 were diluted in water and a single application for each study (backpack sprayer) was performed delivering 50 L of spray solution per ha at the reproductive stage of sugarcane and at a maximum 150 days before harvest. The activity of florpyrauxifen-benzyl as a flowering inhibitor was measured via assessments (Scale of flowering inhibition—see chart 1) performed at 0, 14, 30, 45, 60, 75, 90, 120, 150 days after application, or up to harvest time. The assessments were measured in sugarcane stems, rating the flowering induction according to the UFSCar scale shown below. Significance of treatment effect was evaluated with F-approximate test (α=0.1) and least square means from different treatments were compared with Tukey's test.
smiles,measurement,setting,value
"COc1c(Cl)ccc(-c2nc(C(=O)OCc3ccccc3)c(Cl)c(N)c2F)c1F [Rinskor, florpyrauxifen-benzyl]",Frequency 1/1 (0%),"Table 3, 120 DAA, 10 g ai/ha",72.5%
same,Frequency 2/1 (15%),"Table 3, 120 DAA, 10 g ai/ha",27.5%
same,Frequency 3/1 (30%),"Table 3, 120 DAA, 10 g ai/ha",0.0%
same,Frequency 4/1 (50%),"Table 3, 120 DAA, 10 g ai/ha",0.0%
same,Frequency 4/2 (80%),"Table 3, 120 DAA, 10 g ai/ha",0.0%
same,Frequency 4/3 (90%),"Table 3, 120 DAA, 10 g ai/ha",0.0%
same,Frequency 4/4 (100%),"Table 3, 120 DAA, 10 g ai/ha",0.0%
same,% Referring to Scale,"Table 3, 120 DAA, 15 g ai/ha",2.6%
same,Frequency 1/1 (0%),"Table 3, 120 DAA, 15 g ai/ha",85.0%
same,Frequency 2/1 (15%),"Table 3, 120 DAA, 15 g ai/ha",12.5%
same,Frequency 3/1 (30%),"Table 3, 120 DAA, 15 g ai/ha",2.5%
same,Frequency 4/1 (50%),"Table 3, 120 DAA, 15 g ai/ha",0.0%
same,Frequency 4/2 (80%),"Table 3, 120 DAA, 15 g ai/ha",0.0%
same,Frequency 4/3 (90%),"Table 3, 120 DAA, 15 g ai/ha",0.0%
same,Frequency 4/4 (100%),"Table 3, 120 DAA, 15 g ai/ha",0.0%
same,% Referring to Scale,"Table 3, 120 DAA, 20 g ai/ha",3.0%
same,Frequency 1/1 (0%),"Table 3, 120 DAA, 20 g ai/ha",80.0%
same,Frequency 2/1 (15%),"Table 3, 120 DAA, 20 g ai/ha",20.0%
same,Frequency 3/1 (30%),"Table 3, 120 DAA, 20 g ai/ha",0.0%
same,Frequency 4/1 (50%),"Table 3, 120 DAA, 20 g ai/ha",0.0%
same,Frequency 4/2 (80%),"Table 3, 120 DAA, 20 g ai/ha",0.0%
same,Frequency 4/3 (90%),"Table 3, 120 DAA, 20 g ai/ha",0.0%
same,Frequency 4/4 (100%),"Table 3, 120 DAA, 20 g ai/ha",0.0%
same,% Referring to Scale,"Table 3, 150 DAA, 2 g ai/ha",3.0%
same,Frequency 1/1 (0%),"Table 3, 150 DAA, 2 g ai/ha",80.0%
same,Frequency 2/1 (15%),"Table 3, 150 DAA, 2 g ai/ha",20.0%
same,Frequency 3/1 (30%),"Table 3, 150 DAA, 2 g ai/ha",0.0%
same,Frequency 4/1 (50%),"Table 3, 150 DAA, 2 g ai/ha",0.0%
same,Frequency 4/2 (80%),"Table 3, 150 DAA, 2 g ai/ha",0.0%
same,Frequency 4/3 (90%),"Table 3, 150 DAA, 2 g ai/ha",0.0%
same,Frequency 4/4 (100%),"Table 3, 150 DAA, 2 g ai/ha",0.0%
same,% Referring to Scale,"Table 3, 150 DAA, 5 g ai/ha",1.9%
same,Frequency 1/1 (0%),"Table 3, 150 DAA, 5 g ai/ha",87.5%
same,Frequency 2/1 (15%),"Table 3, 150 DAA, 5 g ai/ha",12.5%
same,Frequency 3/1 (30%),"Table 3, 150 DAA, 5 g ai/ha",0.0%
same,Frequency 4/1 (50%),"Table 3, 150 DAA, 5 g ai/ha",0.0%
same,Frequency 4/2 (80%),"Table 3, 150 DAA, 5 g ai/ha",0.0%
same,Frequency 4/3 (90%),"Table 3, 150 DAA, 5 g ai/ha",0.0%
same,Frequency 4/4 (100%),"Table 3, 150 DAA, 5 g ai/ha",0.0%
same,% Referring to Scale,"Table 3, 150 DAA, 7 g ai/ha",3.0%
same,Frequency 1/1 (0%),"Table 3, 150 DAA, 7 g ai/ha",80.0%
same,Frequency 2/1 (15%),"Table 3, 150 DAA, 7 g ai/ha",20.0%
same,Frequency 3/1 (30%),"Table 3, 150 DAA, 7 g ai/ha",0.0%
same,Frequency 4/1 (50%),"Table 3, 150 DAA, 7 g ai/ha",0.0%
same,Frequency 4/2 (80%),"Table 3, 150 DAA, 7 g ai/ha",0.0%
same,Frequency 4/3 (90%),"Table 3, 150 DAA, 7 g ai/ha",0.0%
same,Frequency 4/4 (100%),"Table 3, 150 DAA, 7 g ai/ha",0.0%
same,% Referring to Scale,"Table 3, 150 DAA, 10 g ai/ha",0.8%
same,Frequency 1/1 (0%),"Table 3, 150 DAA, 10 g ai/ha",95.0%
same,Frequency 2/1 (15%),"Table 3, 150 DAA, 10 g ai/ha",5.0%
same,Frequency 3/1 (30%),"Table 3, 150 DAA, 10 g ai/ha",0.0%
same,Frequency 4/1 (50%),"Table 3, 150 DAA, 10 g ai/ha",0.0%
same,Frequency 4/2 (80%),"Table 3, 150 DAA, 10 g ai/ha",0.0%
same,Frequency 4/3 (90%),"Table 3, 150 DAA, 10 g ai/ha",0.0%
same,Frequency 4/4 (100%),"Table 3, 150 DAA, 10 g ai/ha",0.0%
same,% Referring to Scale,"Table 3, 150 DAA, 15 g ai/ha",1.9%
same,Frequency 1/1 (0%),"Table 3, 150 DAA, 15 g ai/ha",87.5%
same,Frequency 2/1 (15%),"Table 3, 150 DAA, 15 g ai/ha",12.5%
same,Frequency 3/1 (30%),"Table 3, 150 DAA, 15 g ai/ha",0.0%
same,Frequency 4/1 (50%),"Table 3, 150 DAA, 15 g ai/ha",0.0%
same,Frequency 4/2 (80%),"Table 3, 150 DAA, 15 g ai/ha",0.0%
same,Frequency 4/3 (90%),"Table 3, 150 DAA, 15 g ai/ha",0.0%
same,Frequency 4/4 (100%),"Table 3, 150 DAA, 15 g ai/ha",0.0%
same,% Referring to Scale,"Table 3, 150 DAA, 20 g ai/ha",0.0%
same,Frequency 1/1 (0%),"Table 3, 150 DAA, 20 g ai/ha",100.0%
same,Frequency 2/1 (15%),"Table 3, 150 DAA, 20 g ai/ha",0.0%
same,Frequency 3/1 (30%),"Table 3, 150 DAA, 20 g ai/ha",0.0%
same,Frequency 4/1 (50%),"Table 3, 150 DAA, 20 g ai/ha",0.0%
same,Frequency 4/2 (80%),"Table 3, 150 DAA, 20 g ai/ha",0.0%
same,Frequency 4/3 (90%),"Table 3, 150 DAA, 20 g ai/ha",0.0%
same,Frequency 4/4 (100%),"Table 3, 150 DAA, 20 g ai/ha",0.0%
same,% Referring to Scale,"Table 4, 90 DAA, 2 g ai/ha",5.6%
same,Frequency 1/1 (0%),"Table 4, 90 DAA, 2 g ai/ha",65.0%
same,Frequency 2/1 (15%),"Table 4, 90 DAA, 2 g ai/ha",35.0%
same,Frequency 3/1 (30%),"Table 4, 90 DAA, 2 g ai/ha",0.0%
same,Frequency 4/1 (50%),"Table 4, 90 DAA, 2 g ai/ha",0.0%
same,Frequency 4/2 (80%),"Table 4, 90 DAA, 2 g ai/ha",0.0%
same,Frequency 4/3 (90%),"Table 4, 90 DAA, 2 g ai/ha",0.0%
same,Frequency 4/4 (100%),"Table 4, 90 DAA, 2 g ai/ha",0.0%
same,% Referring to Scale,"Table 4, 90 DAA, 4 g ai/ha",1.1%
same,Frequency 1/1 (0%),"Table 4, 90 DAA, 4 g ai/ha",87.5%
same,Frequency 2/1 (15%),"Table 4, 90 DAA, 4 g ai/ha",12.5%
same,Frequency 3/1 (30%),"Table 4, 90 DAA, 4 g ai/ha",0.0%
same,Frequency 4/1 (50%),"Table 4, 90 DAA, 4 g ai/ha",0.0%
same,Frequency 4/2 (80%),"Table 4, 90 DAA, 4 g ai/ha",0.0%
same,Frequency 4/3 (90%),"Table 4, 90 DAA, 4 g ai/ha",0.0%
same,Frequency 4/4 (100%),"Table 4, 90 DAA, 4 g ai/ha",0.0%
same,% Referring to Scale,"Table 4, 90 DAA, 10 g ai/ha",6.0%
same,Frequency 1/1 (0%),"Table 4, 90 DAA, 10 g ai/ha",60.0%
same,Frequency 2/1 (15%),"Table 4, 90 DAA, 10 g ai/ha",40.0%
same,Frequency 3/1 (30%),"Table 4, 90 DAA, 10 g ai/ha",0.0%
same,Frequency 4/1 (50%),"Table 4, 90 DAA, 10 g ai/ha",0.0%
same,Frequency 4/2 (80%),"Table 4, 90 DAA, 10 g ai/ha",0.0%
same,Frequency 4/3 (90%),"Table 4, 90 DAA, 10 g ai/ha",0.0%
same,Frequency 4/4 (100%),"Table 4, 90 DAA, 10 g ai/ha",0.0%
same,% Referring to Scale,"Table 4, 90 DAA, 15 g ai/ha",2.6%
same,Frequency 1/1 (0%),"Table 4, 90 DAA, 15 g ai/ha",82.5%
same,Frequency 2/1 (15%),"Table 4, 90 DAA, 15 g ai/ha",17.5%
same,Frequency 3/1 (30%),"Table 4, 90 DAA, 15 g ai/ha",0.0%
same,Frequency 4/1 (50%),"Table 4, 90 DAA, 15 g ai/ha",0.0%
same,Frequency 4/2 (80%),"Table 4, 90 DAA, 15 g ai/ha",0.0%
same,Frequency 4/3 (90%),"Table 4, 90 DAA, 15 g ai/ha",0.0%
same,Frequency 4/4 (100%),"Table 4, 90 DAA, 15 g ai/ha",0.0%
same,% Referring to Scale,"Table 4, 90 DAA, 20 g ai/ha",3.0%
same,Frequency 1/1 (0%),"Table 4, 90 DAA, 20 g ai/ha",80.0%
same,Frequency 2/1 (15%),"Table 4, 90 DAA, 20 g ai/ha",20.0%
same,Frequency 3/1 (30%),"Table 4, 90 DAA, 20 g ai/ha",0.0%
same,Frequency 4/1 (50%),"Table 4, 90 DAA, 20 g ai/ha",0.0%
same,Frequency 4/2 (80%),"Table 4, 90 DAA, 20 g ai/ha",0.0%
same,Frequency 4/3 (90%),"Table 4, 90 DAA, 20 g ai/ha",0.0%
same,Frequency 4/4 (100%),"Table 4, 90 DAA, 20 g ai/ha",0.0%
same,flowering inhibition performance versus the standard (Ethrel 720),"Tables 1-4, 60 to 150 days after application",as well as or better than the standard treatment; also recorded: equivalent to or better than the standard
same,sugarcane flowering inhibition,"field studies, rates from 2 to 20 g ai/ha",excellent sugarcane flowering inhibitor
